Source: PubChem BioAssay (NCI)
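Following 48 hours of exposure in 96-well plates, responses at five concentrations were used to interpolate endpoints linearly. GI50 is the concentration that inhibits growth by half. TGI marks complete inhibition of growth.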

Experiments:
Assay in all cases: NCI tumour cell line growth inhibition, 48 h
SK-MEL-5 melanoma = system: SK-MEL-5 melanoma
MOLT-4 leukemia = system: MOLT-4 leukemia
RXF 393 renal = system: RXF 393 renal
HL-60(TB) leukemia = system: HL-60(TB) leukemia
HS 578T breast = system: HS 578T breast
OVCAR-8 ovarian = system: OVCAR-8 ovarian
SF-539 CNS = system: SF-539 CNS
MDA-MB-468 breast = system: MDA-MB-468 breast
SK-MEL-28 melanoma = system: SK-MEL-28 melanoma
M14 melanoma = system: M14 melanoma
BT-549 breast = system: BT-549 breast
MCF7 breast = system: MCF7 breast
SF-268 CNS = system: SF-268 CNS
MALME-3M melanoma = system: MALME-3M melanoma
HOP-62 NSCLC = system: HOP-62 NSCLC
ACHN renal = system: ACHN renal
HCT-15 colon = system: HCT-15 colon
EKVX NSCLC = system: EKVX NSCLC
SF-295 CNS = system: SF-295 CNS
NCI-H522 lung = system: NCI-H522 lung
SN12C renal = system: SN12C renal
KM12 colon = system: KM12 colon
PC-3 prostate = system: PC-3 prostate
TK-10 renal = system: TK-10 renal
NCI-H23 lung = system: NCI-H23 lung
CCRF-CEM leukemia = system: CCRF-CEM leukemia
COLO 205 colon = system: COLO 205 colon
K-562 leukemia = system: K-562 leukemia
MDA-MB-435 = system: MDA-MB-435
SR leukemia = system: SR leukemia
RPMI-8226 leukemia = system: RPMI-8226 leukemia
SW-620 colon = system: SW-620 colon
OVCAR-4 ovarian = system: OVCAR-4 ovarian
LOX IMVI melanoma = system: LOX IMVI melanoma
CAKI-1 renal = system: CAKI-1 renal
HCT-116 colon = system: HCT-116 colon
UACC-257 melanoma = system: UACC-257 melanoma
NCI-H460 lung = system: NCI-H460 lung
OVCAR-5 ovarian = system: OVCAR-5 ovarian
DU-145 prostate = system: DU-145 prostate
NCI-H226 lung = system: NCI-H226 lung
NCI/ADR-RES ovarian = system: NCI/ADR-RES ovarian
786-0 renal = system: 786-0 renal
HT29 colon = system: HT29 colon
U251 CNS = system: U251 CNS
HOP-92 NSCLC = system: HOP-92 NSCLC
A498 renal = system: A498 renal
T-47D breast = system: T-47D breast
UACC-62 melanoma = system: UACC-62 melanoma
A549 NSCLC = system: A549 NSCLC
SK-OV-3 ovarian = system: SK-OV-3 ovarian
HCC-2998 colon = system: HCC-2998 colon
SNB-19 CNS = system: SNB-19 CNS
OVCAR-3 ovarian = system: OVCAR-3 ovarian
IGROV1 ovarian = system: IGROV1 ovarian

CC[C@]12C=CCN3CC[C@@]4(c5ccc(OC)cc5N(C)[C@H]4[C@@](O)(C(=O)OC)[C@@H]1OC(=O)CCC[P+](C1CCCCC1)(C1CCCCC1)C1CCCCC1)[C@@H]32
GI50 (SK-MEL-5 melanoma): 1.76 µM
TGI (SK-MEL-5 melanoma): 3.28 µM
GI50 (MOLT-4 leukemia): 2.16 µM
TGI (MOLT-4 leukemia): 6.51 µM
GI50 (RXF 393 renal): 1.47 µM
TGI (RXF 393 renal): 5.04 µM
GI50 (HL-60(TB) leukemia): 0.322 µM
TGI (HL-60(TB) leukemia): 1.34 µM
GI50 (HS 578T breast): 2.45 µM
TGI (HS 578T breast): 7.91 µM
GI50 (OVCAR-8 ovarian): 2.97 µM
TGI (OVCAR-8 ovarian): 11.7 µM
GI50 (SF-539 CNS): 2.94 µM
TGI (SF-539 CNS): 10.7 µM
GI50 (MDA-MB-468 breast): 0.313 µM
TGI (MDA-MB-468 breast): 1.29 µM
GI50 (SK-MEL-28 melanoma): 1.08 µM
TGI (SK-MEL-28 melanoma): 2.76 µM
GI50 (M14 melanoma): 1.92 µM
TGI (M14 melanoma): 8.29 µM
GI50 (BT-549 breast): 2.44 µM
TGI (BT-549 breast): 5.82 µM
GI50 (MCF7 breast): 1.19 µM
TGI (MCF7 breast): 7.67 µM
GI50 (SF-268 CNS): 3.23 µM
TGI (SF-268 CNS): 13 µM
GI50 (MALME-3M melanoma): 1.46 µM
TGI (MALME-3M melanoma): 3.26 µM
GI50 (HOP-62 NSCLC): 3.68 µM
TGI (HOP-62 NSCLC): 13.7 µM
GI50 (ACHN renal): 15.2 µM
TGI (ACHN renal): 28.6 µM
GI50 (HCT-15 colon): 15.3 µM
TGI (HCT-15 colon): 29.2 µM
GI50 (EKVX NSCLC): 3.09 µM
TGI (EKVX NSCLC): 16 µM
GI50 (SF-295 CNS): 4.41 µM
TGI (SF-295 CNS): 16.5 µM
GI50 (NCI-H522 lung): 0.688 µM
TGI (NCI-H522 lung): 4.98 µM
GI50 (SN12C renal): 2.89 µM
TGI (SN12C renal): 10.1 µM
GI50 (KM12 colon): 1.63 µM
TGI (KM12 colon): 4.08 µM
GI50 (PC-3 prostate): 1.71 µM
TGI (PC-3 prostate): 11.4 µM
GI50 (TK-10 renal): 2.73 µM
TGI (TK-10 renal): 12.1 µM
GI50 (NCI-H23 lung): 2.31 µM
TGI (NCI-H23 lung): 8.3 µM
GI50 (CCRF-CEM leukemia): 1.69 µM
TGI (CCRF-CEM leukemia): 11.6 µM
GI50 (COLO 205 colon): 0.43 µM
TGI (COLO 205 colon): 1.44 µM
GI50 (K-562 leukemia): 1.32 µM
TGI (K-562 leukemia): 12.5 µM
GI50 (MDA-MB-435): 1.83 µM
TGI (MDA-MB-435): 5.33 µM
GI50 (SR leukemia): 1.35 µM
TGI (SR leukemia): 4.01 µM
GI50 (RPMI-8226 leukemia): 0.383 µM
TGI (RPMI-8226 leukemia): 2.22 µM
GI50 (SW-620 colon): 2.95 µM
TGI (SW-620 colon): 14.6 µM
GI50 (OVCAR-4 ovarian): 2.39 µM
TGI (OVCAR-4 ovarian): 12.4 µM
GI50 (LOX IMVI melanoma): 2.88 µM
TGI (LOX IMVI melanoma): 10.5 µM
GI50 (CAKI-1 renal): 16.4 µM
TGI (CAKI-1 renal): 30.3 µM
GI50 (HCT-116 colon): 2.85 µM
TGI (HCT-116 colon): 11.4 µM
GI50 (UACC-257 melanoma): 1.26 µM
TGI (UACC-257 melanoma): 3.34 µM
GI50 (NCI-H460 lung): 2.77 µM
TGI (NCI-H460 lung): 11.3 µM
GI50 (OVCAR-5 ovarian): 3.19 µM
TGI (OVCAR-5 ovarian): 12 µM
GI50 (DU-145 prostate): 3.75 µM
TGI (DU-145 prostate): 15.2 µM
GI50 (NCI-H226 lung): 4.06 µM
TGI (NCI-H226 lung): 17.2 µM
GI50 (NCI/ADR-RES ovarian): 35.6 µM
TGI (NCI/ADR-RES ovarian): > 100 µM
GI50 (786-0 renal): 4.45 µM
TGI (786-0 renal): 16.7 µM
GI50 (HT29 colon): 1.88 µM
TGI (HT29 colon): 4.05 µM
GI50 (U251 CNS): 0.746 µM
TGI (U251 CNS): 11.8 µM
GI50 (HOP-92 NSCLC): 1.01 µM
TGI (HOP-92 NSCLC): 4.03 µM
GI50 (A498 renal): 12.4 µM
TGI (A498 renal): 26.2 µM
GI50 (T-47D breast): 1.32 µM
TGI (T-47D breast): 11.4 µM
GI50 (UACC-62 melanoma): 1.41 µM
TGI (UACC-62 melanoma): 3.06 µM
GI50 (A549 NSCLC): 3.46 µM
TGI (A549 NSCLC): 13.7 µM
GI50 (SK-OV-3 ovarian): 2.59 µM
TGI (SK-OV-3 ovarian): 7.57 µM
GI50 (HCC-2998 colon): 1.7 µM
TGI (HCC-2998 colon): 7.68 µM
GI50 (SNB-19 CNS): 2.22 µM
TGI (SNB-19 CNS): 11.5 µM
GI50 (OVCAR-3 ovarian): 1.74 µM
TGI (OVCAR-3 ovarian): 9.08 µM
GI50 (IGROV1 ovarian): 1.39 µM
TGI (IGROV1 ovarian): 5.28 µM
